The values that follow come from the NIST ThermoML archive (doi:10.1021/je700063c).

Numbers after ± are expanded uncertainties.

The conditions of this data set: Liquid; for mass density: 298.15 K, 101.33 kPa, Pycnometric method; for Normal boiling temperature: Distillation.

As for `CCCCO` [butan-1-ol], the mass density is 805.8 ± 0.7 kg/m3.
Consider `CC(C)CO` [2-methyl-1-propanol], for which the mass density came to 797.8 ± 0.7 kg/m3 and the Normal boiling temperature was 107.77 ± 0.1 °C.
Take `CCC(C)O` (stereo not given) [butan-2-ol]: the mass density is reported as 802.4 ± 0.7 kg/m3 and the Normal boiling temperature was 99.46 ± 0.1 °C.
